Assay results from ChEMBL document CHEMBL5316344, “Homologation of the Alkyl Side Chain of Antimitotic Phenyl 4-(2-Oxo-3-alkylimidazolidin-1-yl)benzenesulfonate Prodrugs Selectively Targeting CYP1A1-Expressing Breast Cancers Improves Their Stability in Rodent Liver Microsomes” (J Med Chem, 2023).
Active and inactive are the calls of the source. The rule behind the calls is not given here.

Columns and labels:
MCF7 [1] = assay: Induction of cell cycle arrest in human MCF7 cells expressing CYP1A1 assessed as accumulation of cells at G0/G1 phase at 30 nM incubated for 48 hrs by DAPI staining based flow cytometric analysis (reference value: 74+/-2 %); format: functional
HT-1080 [2] = assay: Antitumor activity against human HT-1080 cells xenografted in chick embryo assessed as reduction in tumor wet weight at 1 ug, iv incubated for 17 days by CAM assay; format: functional; set-up: scale not given: the % may be the effect or the level left; settings: dose 1 µg, time 17 day
[3] = Stability in mouse liver microsomes assessed as intrinsic clearance incubated for 60 mins by HPLC analysis; format: ADME, Microsome; settings: read-out: CLH
[4] = Stability in human liver microsomes assessed as half life incubated for 60 mins by HPLC analysis; format: ADME, Microsome
[5] = Stability in rat liver microsomes assessed as intrinsic clearance incubated for 60 mins by HPLC analysis; format: ADME, Microsome; settings: read-out: CLH
Cytochrome P450 1A1 = target: T1, Cytochrome P450 1A1 (Homo sapiens, UniProt P04798); assay: Binding affinity to human CYP1A1 assessed as inhibition of conversion of 7-ethoicyresorufin into fluorescent resorufin by measuring inhibition constant preincubated for 5 mins followed by […] addition measured every minute for 15 mins by EROD assay; format: ADME
T1 sequence (P04798 whole entry): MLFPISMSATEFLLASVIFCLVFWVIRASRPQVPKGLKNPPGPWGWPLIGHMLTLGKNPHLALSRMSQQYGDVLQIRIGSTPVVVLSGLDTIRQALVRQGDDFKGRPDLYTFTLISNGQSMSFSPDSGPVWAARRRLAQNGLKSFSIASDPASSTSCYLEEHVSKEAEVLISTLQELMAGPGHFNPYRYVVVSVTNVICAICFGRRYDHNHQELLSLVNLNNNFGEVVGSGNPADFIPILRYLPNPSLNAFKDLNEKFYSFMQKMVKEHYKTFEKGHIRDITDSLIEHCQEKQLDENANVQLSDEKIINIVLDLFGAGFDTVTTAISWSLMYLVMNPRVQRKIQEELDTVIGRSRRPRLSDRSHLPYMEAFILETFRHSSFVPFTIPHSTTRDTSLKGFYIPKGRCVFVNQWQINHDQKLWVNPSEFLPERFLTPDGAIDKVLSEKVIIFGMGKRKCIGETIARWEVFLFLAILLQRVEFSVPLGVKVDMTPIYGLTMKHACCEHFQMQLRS

MCF7 [6] = assay: Induction of cell cycle arrest in human MCF7 cells expressing CYP1A1 assessed as accumulation of cells at G2/M phase at 30 nM incubated for 48 hrs by DAPI staining based flow cytometric analysis (reference value: 16+/-2 %); format: functional
[7] = Selectivity ratio, ratio of IC50 for antiproliferative activity against human HT-1080 cells transfected with empty vector to IC50 for antiproliferative activity against human HT-1080 cells expressing CYP1A1; format: functional
[8] = Toxicity in chick embryo xenografted with human […] cells transfected with empty vector assessed as mortality at 1 ug, iv incubated for 17 days; format: organism-based, Gallus gallus; settings: chicken, in vivo, 408 h, dose 1 µg, time 17 day
[9] = Stability in rat liver microsomes assessed as half life incubated for 60 mins by HPLC analysis; format: ADME, Microsome
HT-29 = assay: Antiproliferative activity against human HT-29 cells assessed as cell growth inhibition incubated for 48 hrs by sulforhodamine B assay; format: functional, cell-based; settings: HT-29, 48 h
[10] = Toxicity in chick embryo xenografted with human […] cells assessed as mortality at 1 ug, iv incubated for 17 days; format: organism-based, Gallus gallus; settings: chicken, in vivo, 408 h, dose 1 µg, time 17 day
HT-1080 [11] = assay: Antitumor activity against human HT-1080 cells transfected with empty vector xenografted in chick embryo assessed as reduction in tumor wet weight at 1 ug, iv incubated for 17 days by CAM assay; format: functional; set-up: scale not given: the % may be the effect or the level left; settings: dose 1 µg, time 17 day
[12] = Selectivity ratio, ratio of IC50 for antiproliferative activity against human HT-1080 cells to IC50 for antiproliferative activity against human HT-1080 cells expressing CYP1A1; format: functional
HT-1080 [13] = assay: Antiproliferative activity against human HT-1080 cells transfected with empty vector assessed as cell growth inhibition incubated for 48 hrs by sulforhodamine B assay; format: functional, cell-based; settings: HT-1080, 48 h
[14] = Stability in human liver microsomes assessed as intrinsic clearance incubated for 60 mins by HPLC analysis; format: ADME, Microsome; settings: read-out: CLH
HT-1080 [15] = assay: Antitumor activity against human HT-1080 cells expressing CYP1A1 xenografted in chick embryo assessed as reduction in tumor wet weight at 1 ug, iv incubated for 17 days by CAM assay; format: functional; set-up: scale not given: the % may be the effect or the level left; settings: dose 1 µg, time 17 day
[16] = Selectivity ratio, ratio of IC50 for antiproliferative activity against human M21 cells to IC50 for antiproliferative activity against human MCF7 cells expressing CYP1A1; format: functional
[17] = Stability in mouse liver microsomes assessed as half life incubated for 60 mins by HPLC analysis; format: ADME, Microsome
MCF7 [18] = assay: Antiproliferative activity against human MCF7 cells expressing CYP1A1 assessed as cell growth inhibition incubated for 48 hrs by sulforhodamine B assay; format: functional, cell-based; settings: MCF7, 48 h
[19] = Selectivity ratio, ratio of IC50 for antiproliferative activity against human HT-29 cells to IC50 for antiproliferative activity against human MCF7 cells expressing CYP1A1; format: functional
HT-1080 [20] = assay: Antiproliferative activity against human HT-1080 cells expressing CYP1A1 assessed as cell growth inhibition incubated for 48 hrs by sulforhodamine B assay; format: functional, cell-based; settings: HT-1080, 48 h
M21 = assay: Antiproliferative activity against human M21 cells assessed as cell growth inhibition incubated for 48 hrs by sulforhodamine B assay; format: functional, cell-based; settings: M21, 48 h
[21] = Toxicity in chick embryo xenografted with human […] cells expressing CYP1A1 assessed as mortality at 1 ug, iv incubated for 17 days; format: organism-based, Gallus gallus; settings: chicken, in vivo, 408 h, dose 1 µg, time 17 day
MCF7 [22] = assay: Induction of cell cycle arrest in human MCF7 cells expressing CYP1A1 assessed as accumulation of cells at S phase at 30 nM incubated for 48 hrs by DAPI staining based flow cytometric analysis (reference value: 11+/-1 %); format: functional
HT-1080 [23] = assay: Antiproliferative activity against human HT-1080 cells assessed as cell growth inhibition incubated for 48 hrs by sulforhodamine B assay; format: functional, cell-based; settings: HT-1080, 48 h
MCF7 [24] = assay: Induction of cell cycle arrest in human MCF7 cells expressing CYP1A1 assessed as accumulation of cells at G0/G1 phase at 145 nM incubated for 48 hrs by DAPI staining based flow cytometric analysis (reference value: 74+/-2 %); format: functional
Tubulin (Homo sapiens) [25] = target: T2, Tubulin (Homo sapiens) (UniProt P68371+Q9H4B7+P0DPH7+P68366+Q13509+Q71U36+P04350+Q3ZCM7+P07437+P68363+Q9BQE3+Q6PEY2+Q13885+Q9BVA1+Q9BUF5); assay: Disruption of microtubules in human MCF7 cells expressing CYP1A1 assessed as cytoskeleton disruption at 65 nM measured after 48 hrs by DAPI staining based fluorescence microscopic analysis; format: cell-based
MCF7 [26] = assay: Induction of cell cycle arrest in human MCF7 cells expressing CYP1A1 assessed as accumulation of cells at S phase at 145 nM incubated for 48 hrs by DAPI staining based flow cytometric analysis (reference value: 11+/-1 %); format: functional
MCF7 [27] = assay: Induction of cell cycle arrest in human MCF7 cells expressing CYP1A1 assessed as accumulation of cells at G2/M phase at 145 nM incubated for 48 hrs by DAPI staining based flow cytometric analysis (reference value: 16+/-2 %); format: functional
MCF7 [28] = assay: Induction of cell cycle arrest in human MCF7 cells expressing CYP1A1 assessed as accumulation of cells at S phase at 690 nM incubated for 48 hrs by DAPI staining based flow cytometric analysis (reference value: 11+/-1 %); format: functional
MCF7 [29] = assay: Induction of cell cycle arrest in human MCF7 cells expressing CYP1A1 assessed as accumulation of cells at G0/G1 phase at 690 nM incubated for 48 hrs by DAPI staining based flow cytometric analysis (reference value: 74+/-2 %); format: functional
MCF7 [30] = assay: Induction of cell cycle arrest in human MCF7 cells expressing CYP1A1 assessed as accumulation of cells at G2/M phase at 690 nM incubated for 48 hrs by DAPI staining based flow cytometric analysis (reference value: 16+/-2 %); format: functional
Tubulin (Homo sapiens) [31] = target: T2, Tubulin (Homo sapiens); assay: Disruption of microtubules in human MCF7 cells expressing CYP1A1 assessed as cytoskeleton disruption at 970 nM measured after 48 hrs by DAPI staining based fluorescence microscopic analysis; format: cell-based
MCF7 [32] = assay: Induction of cell cycle arrest in human MCF7 cells expressing CYP1A1 assessed as accumulation of cells at G0/G1 phase at 1100 nM incubated for 48 hrs by DAPI staining based flow cytometric analysis (reference value: 74+/-2 %); format: functional
MCF7 [33] = assay: Induction of cell cycle arrest in human MCF7 cells expressing CYP1A1 assessed as accumulation of cells at S phase at 1100 nM incubated for 48 hrs by DAPI staining based flow cytometric analysis (reference value: 11+/-1 %); format: functional
Tubulin (Homo sapiens) [34] = target: T2, Tubulin (Homo sapiens); assay: Disruption of microtubules in human MCF7 cells expressing CYP1A1 assessed as cytoskeleton disruption at 1305 nM measured after 48 hrs by DAPI staining based fluorescence microscopic analysis; format: cell-based
MCF7 [35] = assay: Induction of cell cycle arrest in human MCF7 cells expressing CYP1A1 assessed as accumulation of cells at G2/M phase at 1100 nM incubated for 48 hrs by DAPI staining based flow cytometric analysis (reference value: 16+/-2 %); format: functional

microsomal CLint [3] | half-life [4] | microsomal CLint [5] | Ki (Cytochrome P450 1A1) | half-life [9] | IC50 (HT-29) | IC50 (HT-1080 [13]) | microsomal CLint [14] | half-life [17] | IC50 (MCF7 [18]) | IC50 (HT-1080 [20]) | IC50 (HT-1080 [23]) | Structure (SMILES) | Ratio IC50 [7] | Ratio IC50 [12] | Ratio IC50 [16] | Ratio IC50 [19] | IC50 (M21) | other results
12.5 µL/min/mg | 2 h | 9 µL/min/mg | 1.2 µM | 2.67 h | > 5 µM | > 5 µM | 12 µL/min/mg | 1.85 h | 0.05 µM | 0.03 µM | 4.57 µM | CCCCCN1CCN(c2ccc(S(=O)(=O)Oc3cc(Cl)cc(Cl)c3)cc2)C1=O | >167 | 152 | >100 | >100 | > 5 µM | Activity (MCF7 [24]): 49%; Activity (Tubulin (Homo sapiens) [25]): Active; Activity (MCF7 [26]): 17%; Activity (MCF7 [27]): 34%
15 µL/min/mg | 1.28 h | 24 µL/min/mg | 0.19 µM | 1.03 h | > 12.5 µM | > 12.5 µM | 19 µL/min/mg | 1.55 h | 0.14 µM | 0.03 µM | 4.11 µM | CCCCCN1CCN(c2ccc(S(=O)(=O)Oc3cccc(I)c3)cc2)C1=O | >417 | 137 | >90 | >90 | > 12.5 µM | Activity (MCF7 [28]): 18%; Activity (MCF7 [29]): 37%; Activity (MCF7 [30]): 45%; Activity (Tubulin (Homo sapiens) [31]): Active
11 µL/min/mg | 4.83 h | 12 µL/min/mg | 0.6 µM | 1.83 h | > 12.5 µM | > 12.5 µM | 5 µL/min/mg | 2.17 h | 0.4 µM | 0.09 µM | 6.85 µM | CCCCCN1CCN(c2ccc(S(=O)(=O)Oc3cccc(Cl)c3)cc2)C1=O | >139 | 76 | >31 | >31 | > 12.5 µM | Activity (MCF7 [32]): 45%; Activity (MCF7 [33]): 13%; Activity (Tubulin (Homo sapiens) [34]): Active; Activity (MCF7 [35]): 42%

Structure (SMILES) | microsomal CLint [3] | half-life [4] | microsomal CLint [5] | Ki (Cytochrome P450 1A1) | half-life [9] | IC50 (HT-29) | IC50 (HT-1080 [13]) | microsomal CLint [14] | half-life [17] | IC50 (MCF7 [18]) | IC50 (HT-1080 [20]) | IC50 (HT-1080 [23]) | Ratio IC50 [7] | Ratio IC50 [12] | Ratio IC50 [16] | Ratio IC50 [19] | IC50 (M21) | other results
CCCCN1CCN(c2ccc(S(=O)(=O)Oc3cc(OC)c(OC)c(OC)c3)cc2)C1=O | 77 µL/min/mg | 1.53 h | 77 µL/min/mg | 0.14 µM | 0.302 h | > 5 µM | 0.82 µM | 15 µL/min/mg | 0.3 h | 0.029 µM | 0.006 µM | 1.2 µM | 137 | 200 | 83 | >172 | 2.4 µM | Activity (MCF7 [1]): 38%; Activity (HT-1080 [2]): 85%; Activity (MCF7 [6]): 51%; Activity [8]: Non-Toxic; Activity [10]: Non-Toxic; Activity (HT-1080 [11]): 108%; Activity (HT-1080 [15]): 51%; Activity [21]: Non-Toxic; Activity (MCF7 [22]): 11%
